Reference: patent publication US20250205230A1 (priority 2022, published 2025)
In brackets after ≈: the same amount, converted by molar mass. Like-named read-outs stand apart in the source and are kept apart here.

How the values were obtained:
VSVΔ51M [1] = format: cell-based, vesicular stomatitis Indiana virus (VSV); conditions: 10 μM
PERK [2] = format: cell-based; conditions: for increase in eIF2α phosphorylation: 20 μM, 0.1 MOI, lysed 24 h; for eIF2α phosphorylation (eIF2α-P relative to total eIF2α), in words: HEK293 infected at 0.1 MOI, 10 or 20 μM, lysed 24 hours post-infection
VSVΔ51M [3] = format: cell-based, vesicular stomatitis Indiana virus (VSV)
Lipophilicity (logD7.4) = conditions: for logD: pH 7.4
[4] = system: TGEV (an alpha-coronavirus); conditions: cited from earlier work
SARS-CoV-2 = format: cell-based
[5] = system: asialoglycoprotein receptor H2b; test: Oligosaccharide maturation of H2b in transfected HEK293 cells (western blot); format: cell-based; conditions: Endo H
ACE2 = test: Oligosaccharide maturation of ACE2 in transfected HEK293 cells (western blot); format: cell-based; conditions: Endo H or N-glycanase
PERK [6] = test: eIF2α phosphorylation in non-infected HEK293 cells; format: cell-based; conditions: lysed 24 hours post-treatment
[7] = treatment began at the start of the infection

SMILES | inhibition of replication, comparison between compounds (VSVΔ51M [1]) | reduction of titer of infectious virions (VSVΔ51M [1]) | increase in eIF2α phosphorylation (PERK [2]; [7]) | eIF2α phosphorylation (eIF2α-P relative to total eIF2α), in words (PERK [2]) | infectivity (VSV-G level), in words (VSVΔ51M [3]) | decrease in infectivity (VSV-G relative to actin) (VSVΔ51M [3]; 20 μM) | solubility (Solubility) | solubility compared to MK-28 (Solubility; ratio GLB7 vs MK-28) | lipophilicity, in words (Lipophilicity (logD7.4); compared with MK-28) | logD (Lipophilicity (logD7.4)) | expression of TGEV viral proteins and viral titers [4] | reduction of SARS-CoV-2 replication (titer of infectious virions) (SARS-CoV-2) | effect on maturation of H2b [5] | effect on maturation of ACE2 (ACE2) | increase in eIF2α phosphorylation (PERK [2]; treatment began 3 hours after the start of the infection) | increase in eIF2α phosphorylation (PERK [6]; 10 μM) | increase in eIF2α phosphorylation (PERK [6]; 20 μM)
Oc1ccc(C=NNc2nc(-c3ccccc3)cc(-c3ccccc3)n2)cc1O (racemic) [GLB7, 4-((2-(4,6-diphenylpyrimidin-2-yl)hydrazono)methyl)benzene-1,2-diol] | greater inhibition than MK-28 | several orders of magnitude | about 1.5 fold | strong increase | major decrease in infectivity | about 3 fold | 16 µM (≈ 6.12 µg/mL) | more than 10 fold | decreased lipophilicity | 3.6 |  |  |  |  |  |  | 
O=C(COc1ccc(Cl)cc1)NC1CCC(NC(=O)COc2ccc(Cl)cc2)CC1 (centres unmarked) [ISRIB] |  |  |  |  |  |  |  |  |  |  | increased |  |  |  |  |  | 
CN(N=Cc1ccc(O)c(O)c1)c1nc(-c2ccccc2)cc(-c2ccccc2)n1 [MK-28, 4-((2-(4,6-diphenylpyrimidin-2-yl)-2-methylhydrazineylidene)methyl) benzene-1,2-diol] | greater inhibition of replication than did GLB7 | several orders of magnitude | about 5 fold | strong increase |  |  | 1.4 µM (≈ 0.555 µg/mL) |  |  | 4.5 |  | 10- to 100 fold | no effect | no effect | about 4 fold | about 1.4 fold | about 1.1 fold
